The record followed here is patent US20040255344A1, “Rodent with urinary disturbance and method of constructing the same, and method of screening remedy for urinary disturbance using the rodent” (priority 2001, published 2004).

Structures can show the parent of a compound that is named as a salt.

This assay has as its system urinary dysfunction model rat. Kind of assay: screening test in urinary dysfunction model rat (superior colliculus lesion), cystometrography. Conditions: 0.3 mg/kg iv, 5 minutes after intravenous administration, FIG. 9. Format: in vivo. The text has this:
FIG. 3 indicates a schematic diagram of a system to measure the status of accelerated urinary reflex used in the present invention.
Here, a cystometrogram is made when detecting the urinary reflex by putting a catheter (not indicated in the diagram) in the bladder, and continuously measuring the changes of internal bladder pressure through the said catheter.
Further, the volume of the bladder can be calculated from the results of this cystometrogram as follows. Specifically, when infusing physiological saline into the bladder at a constant rate, the volume of the bladder can be calculated by multiplying the time required to reach the threshold where the urinary reflex starts by the fixed rate.
An urinary dysfunction model rat was produced by the following method. […]
After the operation was complete and the animals had awakened from the anesthesia, the post-operative rat was measured using cystometrography based on the system indicated in FIG. 3, and the status of accelerated urinary reflex was confirmed.
Using a control rat and the rat produced under adequate conditions based on the present invention, the presence of a therapeutic effect was assessed after intravenously administering oxybutynin hydrochloride (0.3 mg/kg iv:iv means intravenous injection, and iv means the same in FIG. 9.), which is a candidate compound as a therapeutic agent for urinary dysfunction. […]

As for `CCN(CC)CC#CCOC(=O)C(O)(c1ccccc1)C1CCCCC1` (centres unmarked) [oxybutynin hydrochloride], the bladder volume result is reported as “increased” and the “level of the urinary dysfunction” value is recorded as “improved”.
